{
  "source": "patent US8674172B2",
  "about": "“Prostate cancer cell lines and their use in screening method” (Institut Gustave Roussy, priority 2009, dated 2014)",
  "assay_type_in_all_cases": "cell-based, human",
  "key": {"PC3 cells": {"system": "PC3 cells", "assay": "Hormone-dependent growth assay (WST1 cell survival)", "conditions": "10^-9M DHT for 72 hours, phenol red free medium with charcoal-stripped serum", "experimental": "(§1) The cell growth kinetic was determined by counting the viable cell number at regular intervals. Cells were seeded in triplicate at 4000 cells/well in 12 well plates in normal culture medium or in medium containing 10% of charcoal-stripped serum. Each day, cells were colored with trypan blue and counted. The doubling-time was calculated from regression equation of the curve. For the hormone-dependent growth assay, cells were seeded at 10 000 cells/well in 96 well plates. After 24 h, the culture medium was replaced with medium without phenol red containing 10% of charcoal-stripped serum and the DHT was added or not at the final concentration of 10^−9M. The medium was replaced each day. After 72 hours, cell survival was measured with the WST1 test according the manufacturer's procedures."}, "LNCaP cells": {"system": "LNCaP cells", "assay": "Hormone-dependent growth assay (WST1 cell survival)", "conditions": "10^-9M DHT for 72 hours, phenol red free medium with charcoal-stripped serum", "experimental": "as §1"}, "IGR-CaP1 cells [1]": {"system": "IGR-CaP1 cells", "assay": "Hormone-dependent growth assay (WST1 cell survival)", "conditions": "10^-9M DHT for 72 hours, phenol red free medium with charcoal-stripped serum", "experimental": "as §1"}, "IGR-CaP1-R100 cell line": {"system": "IGR-CaP1-R100 cell line", "assay": "Resistance of the cell line to a cytotoxic drug"}, "IGR-CaP1 cells [2]": {"system": "IGR-CaP1 cells", "assay": "Cell cycle analysis by flow cytometry after propidium iodide staining", "conditions": "sensitive IGR-CaP1 cells, 100 nM docetaxel for 48 h", "experimental": "(§2) Freshly plated IGR-CaP1 and IGR-CaP1-R100 cells were incubated for 48 h in complete medium containing or not 100 nM of docetaxel. Cell cycle distribution was studied on 70% cold ethanol-fixed cells, by propidium iodide staining (50 μg in PBS) and RNAse treatment (20 μg) followed by flow cytometry analysis (FACScalibur Becton-Dickinson)."}, "IGR-CaP1-R100 cells": {"system": "IGR-CaP1-R100 cells", "assay": "Cell cycle analysis by flow cytometry after propidium iodide staining", "conditions": "IGR-CaP1-R100 cells resistant to 100 nM docetaxel, 100 nM docetaxel for 48 h", "experimental": "as §2"}},
  "note": "“Also recorded” adds a separate entry of the source.",
  "data": [
    {"smiles": "C[C@]12CCC(=O)C[C@@H]1CC[C@@H]1[C@@H]2CC[C@]2(C)[C@@H](O)CC[C@@H]12", "note": "[DHT]", "values": [
      {"measurement": "Cellular growth in the presence of androgen", "setting": "PC3 cells", "result": "did not affect the cellular growth"},
      {"measurement": "Cellular growth in the presence of androgen", "setting": "LNCaP cells", "result": "increased"},
      {"measurement": "Cellular growth in the presence of androgen", "setting": "IGR-CaP1 cells [1]", "result": "did not affect the cellular growth"}
    ]},
    {"smiles": "N.N.[Cl][Pt][Cl]", "note": "[cisplatin]", "values": [
      {"measurement": "Resistance of the cell line to the drug", "setting": "IGR-CaP1-R100 cell line", "result": "resistant"}
    ]},
    {"smiles": "CC(=O)O[C@@]12CO[C@@H]1C[C@H](O)[C@@]1(C)C(=O)[C@H](O)C3=C(C)[C@@H](OC(=O)[C@H](O)[C@@H](NC(=O)OC(C)(C)C)c4ccccc4)C[C@@](O)([C@@H](OC(=O)c4ccccc4)[C@H]21)C3(C)C", "note": "[docetaxel]", "values": [
      {"measurement": "Cell cycle distribution (block in G2-M phase)", "setting": "IGR-CaP1 cells [2]", "result": "blocked in G2-M phase"},
      {"measurement": "Cell cycle distribution (block in G2-M phase)", "setting": "IGR-CaP1-R100 cells", "result": "normally cycle; also recorded: not blocked in G2-M phase"}
    ]}
  ]
}
